Drawing on patent publication US5948793A, “3-pyridyloxymethyl heterocyclic ether compounds useful in controlling neurotransmitter release” (Abbott Laboratories, priority 1995, dated 1999), this text covers Ki for 47 molecules.

In general, pKi refers to the Ki on a negative log10 scale, so that one unit is a factor of ten.

Each structure is given as a SMILES string. pKi: −log10 of the molar value. Counter-ions that a name gives are not always drawn.

For the first experiment, the target named is neuronal nicotinic cholinergic channel receptors. Briefly: [3H]-cytisine displacement binding to neuronal nicotinic cholinergic channel receptors. It counts as rat (crude synaptic membranes from whole rat brain). Conditions: Table 2; [3H]-cytisine 1.25 nM, 60 min at 4° C.; dihydrochloride; read-out: Receptor Binding Ki. As for the experimental part: B. Protocol For Determination of Nicotinic Cholinergic Channel Receptor Binding Potencies of Ligands
Binding of [^3 H]-cytisine ([^3 H]-CYT) to nicotinic receptors was accomplished using crude synaptic membrane preparations from whole rat brain (Pabreza et al., Molecular Pharmaol., 1990, 39:9). Washed membranes were stored at -80° C. prior to use. Frozen aliquots were slowly thawed and resuspended in 20 volumes of buffer (containing: 120 mM NaCl, 5 mM KCl, 2 mM MgCl2, 2 mM CaCl2 and 50 mM Tris-Cl, pH 7.4 @4° C.). After centrifuging at 20,000×g for 15 minutes, the pellets were resuspended in 30 volumes of buffer. Homogenate (containing […]) was added to triplicate tubes containing concentrations of test compound and [^3 H]-CYT (1.25 nM) in a final volume of 500 μL. Samples were incubated for 60 minutes at 4° C., then rapidly filtered through Whatman GF/B filters presoaked in 0.5% polyethylimine using 3×4 mL of ice-cold buffer. The filters are counted in 4 mL of Ecolume® (ICN). […] Alternately, data were expressed as a percentage of the total specific binding.
Regarding `Cc1ncccc1OC[C@H]1CCN1` [Example 41, 2-methyl-3-(2-(R)-azetidinylmethoxy)pyridine dihydrochloride], the negative-log Ki (pKi) is 8.00.

The same experiment, now with this note: Table 2; [3H]-cytisine 1.25 nM, 60 min at 4° C.; read-out: Receptor Binding Ki.
For `CCC[C@H]1CCN(C)[C@H]1COc1cccnc1` (relative stereo) [Example 60, 3-((cis-1-methyl-3-propyl-2-pyrrolidinyl)methoxy)pyridine dihydrochloride], the pKi was 7.29.

`CCC[C@H]1CCN[C@H]1COc1cccnc1` (relative stereo) [Example 61, 3-((cis-3-propyl-2-pyrrolidinyl)methoxy)pyridine dihydrochloride]: the pKi is 8.89.

On to `CN1CCC[C@H]1COc1cnccn1` [Example 3, 2-((1-methyl-2-(S)-pyrrolidinyl)methoxy)pyrazine fumarate], for which the negative logarithm of the Ki (pKi) was 7.70.

Consider `c1cnc(OC[C@@H]2CCN2)cn1` [Example 7, 2-(2-(S)-azetidinylmethoxy)pyrazine dihydrochloride], for which the pKi was 9.36.

Regarding `CN1CCC[C@H]1COc1nccs1` [Example 11, 2-((1-methyl-2-(S)-pyrrolidinyl)methoxy)thiazole hydrochloride], the pKi is 6.96.

Regarding `Clc1cncc(OC[C@@H]2CCCN2)c1` [Example 15, 5-chloro-3-(2-(S)-pyrrolidinylmethoxy)pyridine dihydrochloride], the pKi was 9.89.

Take `Cc1ncccc1OC[C@@H]1CCN1C` [Example 30, 2-Methyl-3-((1-methyl-2-(S)-azetidinyl)methoxy)pyridine dihydrochloride]: the negative-log Ki (pKi) is 6.89.

For `Clc1cncc(OC[C@@H]2CCN2)c1` [Example 39, 5-chloro-3-(2-(S)-azetidinylmethoxy)pyridine dihydrochloride], the pKi was 10.40.

Consider `Cc1ccc(OC[C@@H]2CCN2)cn1` [Example 40, 6-methyl-3-(2(S)-azetidinylmethoxy)pyridine dihydrochloride], for which the pKi was 10.30.

In the case of `CN1CCCC[C@@H]1COc1cccnc1` [Example 42, 3-((1-methyl-2-(R)-piperidinyl)methoxy)pyridine dihydrochloride], the pKi is 6.47.

For the molecule `Clc1ncccc1OC[C@@H]1CCCN1` [Example 43, 2-chloro-3-(2-(S)-pyrrolidinylmethoxy)pyridine dihydrochloride], the pKi was 7.73.

In the case of `CN1CCC[C@H]1COc1cncc(C(F)(F)F)c1` [Example 44, 3-(1-methyl-2-(S)-pyrrolidinylmethoxy)-5-trifluoromethylpyridine dihydrochloride], the pKi is 8.74.

In the case of `Clc1ccc(OC[C@@H]2CCCN2)cn1` [Example 45, 3-(2-(S)-pyrrolidinylmethoxy)-6-chloropyridine dihydrochloride], the negative-log Ki (pKi) was 10.12.

As for `CO[C@@H]1C[C@@H](COc2cccnc2)N(C)C1` [Example 47, 34 (trans-4-methoxy-1-methyl-2-(S)-pyrrolidinyl)methoxy)pyridine dihydrochloride], the pKi was 7.64.

For the molecule `CN1C[C@@H](CO)C[C@H]1COc1cccnc1` [Example 48, 3-((cis-4-hydroxymethyl-1-methyl-2-(S)-pyrrolidinyl)methoxy)pyridine dihydrochloride], the negative logarithm of the Ki (pKi) is 7.52.

For `COCC1C[C@@H](COc2cccnc2)N(C)C1` (stereo partly drawn) [Example 49, 3-((4-methoxymethyl-1-methyl-2-(S)-pyrrolidinyl)methoxy)pyridine dihydrochloride], the pKi is 7.18.

As to `CN1C[C@H](CC#N)C[C@H]1COc1cccnc1` [Example 50, 3-((trans-4-cyanomethyl-1-methyl-2-(S)-pyrrolidinyl)methoxy)pyridine dihydrochloride], the pKi is 8.25.

With `CN1CCC[C@@H]1COc1ccc(Cl)nc1` [Example 51, 3-((1-methyl-2-(R)-pyrrolidinyl)methoxy-6-chloropyridinedihydrochloride], the negative logarithm of the Ki (pKi) was 8.35.

As for `Cc1ncccc1OC[C@@H]1CCCN1C` [Example 53, 2-methyl-3-(1-methyl-2-(S)-pyrrolidinylmethoxy)pyridine dihydrochloride], the negative logarithm of the Ki (pKi) is 7.55.

As to `CN1CCC[C@@H]1COc1cncc(C(F)(F)F)c1` [Example 54, 3-((1-methyl-2-(R)-pyrrolidinyl)methoxy)-5-trifluoromethylpyridine hydrochloride], the negative logarithm of the Ki (pKi) is 7.11.

As for `CN1CCC[C@H]1COc1ccc(Cl)nc1` [Example 55, 6-chloro-3-((1-methyl-2-(S)-pyrrolidinyl)methoxy)pyridine dihydrochloride], the negative-log Ki (pKi) is 9.20.

As to `CN1CCC[C@@H]1COc1cncc(Br)c1` [Example 56, 5-bromo-3-((1-methyl-2-(R)-pyrrolidinyl)methoxy)pyridine hydrochloride], the negative-log Ki (pKi) was 8.04.

With `C=CCN1CCC[C@H]1COc1cncc(Br)c1` [Example 57, 3-((1-allyl-2-(S)-pyrrolidinyl)methoxy)-5-bromopyridine dihydrochloride], the pKi is 7.77.

Turning to `Clc1ccc(OC[C@H]2CCCN2)cn1` [Example 58, 3-(2-(R)-pyrrolidinylmethoxy)-6-chloropridine hydrochloride], the pKi was 8.28.

With `c1cncc(OC[C@H]2CCN2)c1` [Example 62, 3-(2-(R)-azetidinylmethoxy)pyridine dihydrochloride], the pKi is 9.30.

As to `CN1CC[C@@H]1COc1cccnc1` [Example 63, 3-((1-methyl-2-(R)-azetidinyl)methoxy)pyridine dihydrochloride], the negative-log Ki (pKi) was 8.85.

`Cc1ccncc1OC[C@@H]1CCN1` [Example 64, 4methyl-3-(2-(S)-azetidinylmethoxy)pyridine dihydrochloride]: the pKi was 6.65.

Take `Brc1cncc(OC[C@@H]2CCCN2)c1` [Example 65, 5-bromo-3-(2-(S)-pyrrolidinylmethoxy)pyridine dihydrochloride]: the negative logarithm of the Ki (pKi) was 9.22.

The same experiment, now with this note: read-out: Receptor Binding Ki.
As to `c1cncc(OC[C@H]2CCCN2)c1` [Example 2, 3-(2-(R)-pyrrolidinylmethoxy)pyridine dihydrochloride], the pKi was 9.77.

As to `CN1CCC[C@@H]1COc1ccc(Cl)nn1` [Example 5, oxalate], the pKi is 7.06.

Take `CC(Oc1cccnc1)[C@@H]1CCCN1C` (stereo partly drawn) [Example 6, 3-(a-methyl-(1-methyl-2-(S)-pyrrolidinyl)methoxy)pyridine hydrochloride]: the pKi is 8.17.

As for `CN1CCC[C@H]1COc1ccc(Cl)nn1` [Example 12, 3-((1-methyl-2-(S)-pyrrolidinyl)methoxy-6-chloropyridazine fumarate], the pKi was 7.54.

For `CN1CC[C@H]1COc1ccc(Cl)nn1` [Example 13, 6-chloro-3-((1-methyl-2(S)-azetidinyl)methoxy)pyridazine oxalate], the pKi is 7.19.

`Brc1ccncc1OC[C@@H]1CCCN1` [Example 20, 4-bromo-3-(2-(S)-pyrrolidinylmethoxy)pyridine dihydrochloride]: the pKi was 6.47.

On to `CN1CCC[C@H]1COc1cnccc1Br` [Example 21, 4-bromo-3-((1-methyl-2-(S)-pyrrolidinyl)methoxy)pyridine dihydrochloride], for which the negative-log Ki (pKi) was 7.64.

For the molecule `C[C@H]1CC[C@@H](COc2cccnc2)N1C` [Example 22, 3-((cis-1,5-dimethyl-2-(S)-pyrrolidinyl)methoxy)pyridine dihydrochloride], the pKi was 7.60.

For `CN1C[C@H](O)C[C@H]1COc1cccnc1` [Example 23, 3-((trans-1-methyl-4-hydroxy-2(S)-pyrrolidinyl)methoxy)pyridine dihydrochloride], the pKi was 7.11.

For `C[C@@H]1C[C@@H](COc2cccnc2)N(C)C1` [Example 24, 3-((trans-1,4-dimethyl-2(S)-pyrrolidinyl)methoxy)pyridine dihydrochloride], the negative-log Ki (pKi) is 8.38.

For the molecule `CC[C@@H]1C[C@@H](COc2cccnc2)N(C)C1` [Example 25, 3-((trans-1-methyl-4-ethyl-2(S)-pyrrolidinyl)methoxy)pyridine dihydrochloride], the pKi was 7.83.

Regarding `CN1CCCCC1COc1cccnc1` (centres unmarked) [Example 26, 3-((1-methyl-2-piperidinyl)methoxy)pyridine oxalate salt], the pKi was 7.12.

As to `Cc1ccncc1OC[C@@H]1CCCN1` [Example 27, 4-methyl-3-(2-(S)-pyrrolidinylmethoxy)pyridine dihydrochloride], the negative logarithm of the Ki (pKi) is 8.24.

With `CN1CCC[C@H]1COc1cncc(Br)c1` [Example 28, 5-bromo-3-((1-methyl-2-(S)-pyrrolidinyl)methoxy)pyridine dihydrochloride], the pKi is 9.64.

Take `Cc1ncccc1OC[C@@H]1CCN1` [Example 29, 2-methyl-3-(2-(S)-azetidinylmethoxy)pyridine dihydrochloride]: the pKi is 8.89.

In the case of `CN1CCC[C@H]1COc1cncc2ccccc12` [Example 32, 4-(1-methyl-2-(S)-pyrrolidinylmethoxy)isoquinoline hydrochloride], the pKi was 6.96.

In the case of `CN1CCC[C@@H]1COc1cncc(Cl)c1` [Example 34, 5-chloro-3-((1-methyl-2-(R)-pyrrolidinyl)methoxy)pyridine dihydrochloride], the negative-log Ki (pKi) is 7.96.

In the case of `Cc1ccc(OC[C@H]2CCCN2C)cn1` [Example 36, 6-methyl-3-((1-methyl-2-(R)-pyrrolidinyl)methoxy)pyridine dihydrochloride], the pKi is 7.59.
